Key:
steroid sulfatase [1] = molecular target: T1, steroid sulfatase (Homo sapiens, UniProt P08842); experiment: Steroid sulfatase inhibitory activity (in vitro), microsomal fraction of MCF-7 cells, [3H]estrone-3-sulfate hydrolysis; format: biochemical; set-up: microsomal fraction of MCF-7 human breast cancer cells was used; endogenous in cells; host or cells: MCF-7 human breast cancer cells (microsomal fraction); conditions: MCF-7 microsomal fraction, 37° C., 30 minutes; for Inhibitory rate (%) (10^−6 M): 10^−6 M test compound; for Inhibitory rate (%) (10^−7 M): 10^−7 M test compound
T1 sequence (P08842 22-583): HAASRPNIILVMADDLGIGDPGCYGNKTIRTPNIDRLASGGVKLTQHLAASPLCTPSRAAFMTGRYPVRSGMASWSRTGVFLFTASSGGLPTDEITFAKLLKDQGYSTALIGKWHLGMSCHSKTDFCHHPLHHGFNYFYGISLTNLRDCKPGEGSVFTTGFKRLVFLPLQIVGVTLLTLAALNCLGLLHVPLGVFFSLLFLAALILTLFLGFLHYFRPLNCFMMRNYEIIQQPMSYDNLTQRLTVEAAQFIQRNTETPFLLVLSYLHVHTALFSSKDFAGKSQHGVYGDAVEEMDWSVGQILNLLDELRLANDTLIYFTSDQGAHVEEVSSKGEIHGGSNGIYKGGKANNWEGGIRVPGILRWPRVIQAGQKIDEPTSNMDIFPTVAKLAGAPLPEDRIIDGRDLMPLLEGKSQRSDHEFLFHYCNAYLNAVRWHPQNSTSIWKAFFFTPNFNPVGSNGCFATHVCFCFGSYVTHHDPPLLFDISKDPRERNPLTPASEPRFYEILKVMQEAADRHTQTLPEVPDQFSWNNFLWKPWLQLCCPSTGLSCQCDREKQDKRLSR
Experimental: (1) Measurement of Steroid Sulfatase Inhibitory Activity (in vitro):
As the source of steroid sulfatase enzyme, microsomal fraction of MCF-7 human breast cancer cells was used.
To phosphate buffered saline (PBS), one of the test compounds, the microsomal fraction and 50 μL of 60 μM estrone-3-sulfate containing about 100 nCi of [6,7-^3H]estrone-3-sulfate (purchased from Perkin Elmer Life Sciences, Boston, Mass., USA; specific activity, 40-60 Ci/mmol) were added to make the total amount of the reaction system 150 μL, which was incubated at 37° C. for 30 minutes. After the incubation, 50 μL of PBS containing about 2 nCi of [4-^14C] estrone (purchased from Perkin Elmer Life Sciences, Boston, Mass., USA; specific activity 45-60 mCi/mmol) was added and stirred. Further 800 μL of toluene was added, and the whole system was thoroughly shaken for 30 seconds, followed by centrifugation at 2,000×g for 10 minutes to separate the acqueous phase from the organic phase. A part (400 μL) of the organic phase was taken and measured of its ^3H and ^14C contents with scintillation spectrometer.
The mass of hydrolyzed [6,7-^3H]estrone-3-sulfate was calculated from the count number of the obtained ^3H (as corrected regarding the amount of the used organic phase and the recovered amount of [4-^14C]estrone) and the specific activity of the substrate ([6,7-^3H]estrone-3-sulfate) to determine the steroid sulfatase inhibitory rate of each test compound.

steroid sulfatase [2] = molecular target: T2, steroid sulfatase (Rattus norvegicus, UniProt P15589); experiment: Steroid sulfatase inhibitory activity (in vivo), liver and uterus of ovariectomized rats after oral dosing; conditions: 0.5 mg/kg p.o. once a day for seven days, ovariectomized female SD rats
T2 construct: The livers and uteri were separately minced with scissors and suspended in cooled PBS containing 250 mM sucrose; from tissue; host or cells: liver and uterus of ovariectomized female SD rats (2,000 x g supernatant of homogenate)
T2 sequence (P15589 20-577): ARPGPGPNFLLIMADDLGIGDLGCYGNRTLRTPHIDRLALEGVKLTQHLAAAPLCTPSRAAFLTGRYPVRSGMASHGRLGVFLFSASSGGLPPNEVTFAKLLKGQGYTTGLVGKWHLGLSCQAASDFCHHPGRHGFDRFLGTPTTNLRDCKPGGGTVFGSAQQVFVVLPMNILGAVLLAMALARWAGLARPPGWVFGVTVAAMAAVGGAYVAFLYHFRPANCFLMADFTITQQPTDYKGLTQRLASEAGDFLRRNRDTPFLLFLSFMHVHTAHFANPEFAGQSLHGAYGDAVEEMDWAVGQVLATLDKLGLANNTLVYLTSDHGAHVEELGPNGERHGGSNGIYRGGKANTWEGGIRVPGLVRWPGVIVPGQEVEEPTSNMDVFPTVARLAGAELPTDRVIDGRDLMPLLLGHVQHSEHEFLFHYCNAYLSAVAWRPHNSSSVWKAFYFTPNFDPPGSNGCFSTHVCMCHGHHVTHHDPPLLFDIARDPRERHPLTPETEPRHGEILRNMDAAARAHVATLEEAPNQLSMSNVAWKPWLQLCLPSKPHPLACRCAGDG
Experimental: (2) Measurement of Steroid Sulfatase Inhibitory Activity (in vivo):
To six/group of female SD rats which had undergone ovariectomy, the test compounds as each suspended in 0.5% polyoxyethylene (20) sorbitan monooleate (Tween 80) were orally administered once a day for seven days. On the next day of the last administration, the rats were sacrificed under ether anesthesia. The bodies were anatomized and their livers and uteri were extracted, which were washed with cooled PBS and stored below −70° C. The livers and uteri were separately minced with scissors and suspended in cooled PBS containing 250 mM sucrose. Each of the suspensions was homogenized with a homogenizer under cooling with ice, from which neclei and cell debris were eliminated by centrifugation at 2,000×g for 20 minutes (4° C.). Protein concentration of each of the supernatant was measured by Bradford's method (Anal. Biochem., 72, 248-254 (1976)).
To 2-200 μg of the supernatant protein mass and 50 μL of 60 μM estrone-3-sulfate containing about 100 nCi of [6,7-^3H]estrone-3-sulfate (purchased from Perkin Elmer Life Sciences, Boston, Mass., U.S.A.; specific activity, 40-60 Ci/mmol), PBS was added to make the total amount 150 μL, followed by incubation at 37° C. for 30 minutes. After the incubation, the amount of hydrolyzed [6,7-^3H]estrone-3-sulfate was calculated by a method similar to the in vitro measurement in (1) above. Also steroid sulfatase activity per mg of the protein was calculated, and from the amount of the hydrolyzed [6,7-^3H]estrone-3-sulfate and the calculated steroid sulfatase activity per mg of the protein, the tested compound's steroid sulfatase inhibitory rate was determined.

MCF-7 cells = experiment: MCF-7 cell proliferation measurement (MTT) for examining estrogenic activity; format: cell-based, human; conditions: 4 days, 570 nm
Experimental: (3) MCF-7 Cell Proliferation Measurement for Examining Estrogenic Activity:
Stimulation of MCF-7 cell proliferation induced by estrogenic activity of each test compound was measured.
MCF-7 cells were cultured in 10% fetal bovine serum (FBS)-containing RPMI 1640 medium which was free from Phenol Red, using a 75 cm^2 culture flask. Then the medium was changed to RPMI 1640 medium containing 10% of FBS from which emdogenous steroid had been eliminated by charcoal treatment but containing no Phenol Red. Renewing the medium every two days, the culture was continued for 4 days. By this step estrogen was removed from the MCF-7 cells.
The MCF-7 cells were seeded on 96-well plates, 2,000 cells per well, and cultured for 24 hours to immobilize the cells on the plate. After the cell immobilization, the medium in each well was changed to RPMI 1640 medium containing 10^−6M test compound and 10% of charcoal-treated FBS but containing no Phenol Red, and the culture was continued for further 4 days, during which the medium was changed every day to one newly prepared before the use. Also control wells to which no test compound was added were provided.
After the end of the culture, the cell proliferation was measured by MTT (3-(4,5-dimethylthiazol-2-yl)-2,5-diphenyl-2H-tetrazolium bromide; Sigma-Aldrich Japan Co.) method. That is, an MTT solution as dissolved in PBS at a concentration of 5 mg/mL was added to the 96-well plate accommodating the cells, at a rate of 10 μL/well, followed by 2 hours' incubation at 37° C. After the end of the incubation, the medium was removed and the formazan which was taken into the cells and changed was dissolved with 100 μL of dimethylsulfoxide. Absorbance of the formazan was measured at wavelength 570 nm, using a microplate reader, subtracting the 630 nm background.
As shown by the Table 3, absorbance values of the wells to which the test compounds were added were invariably less than 150% of the absorbance of the control well, and it was confirmed that the test compounds were free of estrogenic activity.

steroid sulfatase [3] = molecular target: T1, steroid sulfatase; conditions: background statement; cited from earlier work
[4] = background statement; cited from earlier work

Structure (SMILES)	Inhibitory rate (%) (10^−6 M) (steroid sulfatase [1])	Inhibitory rate (%) (10^−7 M) (steroid sulfatase [1])	Inhibitiory rate (0.5 mg/kg, p.o., %) Liver (steroid sulfatase [2])	Inhibitiory rate (0.5 mg/kg, p.o., %) Uterus (steroid sulfatase [2])	Absorbance relative to that of the control well (10^−6 M, %) (MCF-7 cells)	steroid sulfatase inhibiting activity (steroid sulfatase [3])	estrogenic activity [4]
NS(=O)(=O)Oc1cc(F)c(N2CCN(S(=O)(=O)Cc3ccc(Cl)cc3)CC2)cc1F [Example 56, 4-[(4-chlorobenzylsulfonyl)piperazin-1-yl]-2,5-difluorophenyl-O-sulfamate]	99.9%	98.4%	99.37%	99.81%	–	–	–
CCCCCCCCS(=O)(=O)N1CCN(c2cc(F)c(OS(N)(=O)=O)cc2F)CC1 [Example 52, 2,5-difluoro-4-[4-(octylsulfonyl)piperazin-1-yl]phenyl-O-sulfamate]	100.0%	99.3%	–	–	112.0%	–	–
CCCCCCCCCCCCCC(=O)NCCc1ccc(OS(N)(=O)=O)cc1 [DU-14, 4-(2-myristoylaminoethyl)phenyl sulfamate]	–	–	–	–	–	low level of steroid sulfatase inhibiting activity	free from estrogenic activity
NS(=O)(=O)Oc1cc(F)c(N2CCC(CCCc3ccccc3)CC2)cc1F [Example 37, 2,5-difluoro-4-[4-(3-phenylpropyl)piperidino]phenyl-O-sulfamate]	98.9%	93.6%	99.85%	99.95%	89.5%	–	–
NS(=O)(=O)Oc1cc(F)c(N2CCC(CCCc3ccccc3)CC2)cc1F.O=S(=O)(O)c1ccccc1 [Example 59, 2,5-difluoro-4-[4-(3-phenylpropyl)piperidino]phenyl-O-sulfamate benzenesulfonate]	99.0%	95.4%	100.00%	100.00%	105.3%	–	–
C[C@]12CC[C@@H]3c4ccc(OS(N)(=O)=O)cc4CC[C@H]3[C@@H]1CCC2=O [EMATE, estrone-3-sulfamate]	–	–	–	–	–	potent steroid sulfatase inhibiting activity	potent estrogenic activity
NS(=O)(=O)Oc1cc(F)c(N2CCN(CCc3ccccc3)CC2)cc1F [Example 43, 2,5-difluoro-4-(4-phenethylpiperazin-1-yl)phenyl-O-sulfamate]	98.5%	87.0%	99.90%	99.98%	101.1%	–	–
CC(C)(C)c1ccc(C(=O)CCCN2CCN(c3cc(F)c(OS(N)(=O)=O)cc3F)CC2)cc1 [Example 48, 4-[4-[4-(4-tert-butylphenyl)-4-oxobutyl]piperazin-1-yl]-2,5-difluorophenyl-O-sulfamate]	100.0%	95.9%	–	–	112.0%	–	–
Cc1cc(=O)oc2cc(OS(N)(=O)=O)ccc12 [COUMATE, 4-methylcoumarin-7-sulfamate]	–	–	–	–	–	low level of steroid sulfatase inhibiting activity	free from estrogenic activity
NS(=O)(=O)Oc1cc(F)c(N2CCN(CCCC3CCCCC3)CC2)cc1F [Example 45, 4-[4-(3-cyclohexylpropyl)piperazin-1-yl]-2,5-difluorophenyl-O-sulfamate]	98.5%	88.6%	99.09%	99.32%	91.4%	–	–
NS(=O)(=O)Oc1ccc(N2CCN(CCc3ccc(Cl)cc3)CC2)cc1F [Example 22, 4-[4-[2-(4-chlorophenyl)ethyl]piperazin-1-yl]-2-fluorophenyl-O-sulfamate]	97.3%	85.0%	99.85%	99.98%	74.6%	–	–
NS(=O)(=O)Oc1cc(F)c(N2CCN(S(=O)(=O)c3ccc(Cl)cc3)CC2)cc1F [Example 55, 4-[4-(4-chlorophenylsulfonyl)piperazin-1-yl]-2,5-difluorophenyl-O-sulfamate]	100.0%	97.5%	–	–	64.6%	–	–

— patent publication US7449466B2, “Cyclic aminophenyl sulfamate derivative” (Aska Pharmaceutical Co., Ltd., priority 2003, dated 2008)
